Assay results published in patent US11130733B2, “4-OXO-alkylated tetramic acid compound, preparation method and use thereof” (BEIJING JOEKAI BIOTECH. LLC, priority 2017, dated 2021).
“And” between values parts separate entries of the source, which are not always exact repeats. Equal entries are not always repeated. Where two headings read alike, the source gives them in different places.

Test: Pharmacokinetic evaluation, plasma and brain concentrations
Format: in vivo, ICR mice
Settings: for concentration at 0.083 h / concentration at 0.25 h / concentration at 0.5 h / concentration at 1 h / concentration at 2 h / concentration at 4 h / concentration at 6 h / concentration at 8 h: male, ICR, mouse
Source text: Distribution of a medicament in the body is one of the important indicators to determine the dose and efficacy of the medicament. Thus, excellent candidate compounds should have good pharmacokinetic characteristics. In addition, since the compound of the present invention is intended to be used for the treatment of Alzheimer's disease, which is a disease of the central nervous system, the distribution pattern of the compound in the brain and the blood is also one of the subjects to be investigated. In this experiment, compound 50561 was administered to mice […] or by gavage, and the concentrations of the compound in blood and brain were measured at specific time points to determine the pharmacokinetic parameters.
Forty-eight male ICR mice purchased from Shanghai Sippr-BK Lab. Animal Co. Ltd were used in this experiment. The oral group was fasted for 10-14 hours before administration, and feeding was restored 4 hours after administration. Samples were collected from the intravenous administration group 0.083 h, 0.25 h, 0.5 h, 1 h, 2 h, 4 h, 8 h, and 24 h after administration, respectively: while for the oral administration group, about 0.5 mL of blood was collected from the heart 0.25 h, 0.5 h, 1 h, 2 h, 4 h, 6 h, 8 h, and 24 h after administration, respectively. Heparin sodium was used for anticoagulation. Blood samples were collected and placed on ice, and plasma was separated by centrifugation (centrifugation conditions: 8000 rpm, 6 minutes, 4C). The collected plasma was stored at −80° C. before analysis. After collecting plasma samples, brain tissues were collected, washed with normal saline, water-absorbed by filter paper, weighed immediately, and then placed in labeled tubes (one tube for one brain tissue). The samples to be tested were temporarily placed on ice before being stored in a −80° C. refrigerator.
The analysis methods of biological samples and the analysis of all samples were done by Medicilon Pharmaceutical Technology (Shanghai) Co., Ltd. The intraday accuracy evaluation of the quality control samples was carried out while analyzing the samples, and the accuracy of over 66.7% of the quality control samples was required to be between 80-120%.
When calculating the pharmacokinetic parameters, the BLQ before Cmax (including “No peak”) was calculated as 0; BLQ occurring after Cmax (including “No peak”) was not involved in the calculation. WinNonlin Professional V 5.2 (Pharsight, USA) was adopted to calculate the following pharmacokinetic parameters: AUC(0-t), AUC(0-∞), T1/2, MRT(0-∞), Cmax, and Tmax. The tissue/plasma ratio was to be calculated by the following formula based on the blood concentration data at different time points: Tissue/plasma ratio (mL/g)=tissue blood concentration/plasma blood concentration.

[1] = brain, iv, 1 mg/kg, IV 1 mg/kg, read-out: Brain tissue concentration, Mean
[2] = brain, iv, 1 mg/kg, IV 1 mg/kg, read-out: Brain tissue concentration, individual mice
[3] = brain, po, 10 mg/kg, PO 10 mg/kg, read-out: Brain tissue concentration, Mean
[4] = brain, po, 10 mg/kg, PO 10 mg/kg, read-out: Brain tissue concentration, individual mice
[5] = plasma, iv, 1 mg/kg, IV 1 mg/kg, read-out: Blood concentration, Mean
[6] = plasma, iv, 1 mg/kg, IV 1 mg/kg, read-out: Blood concentration, individual mice
[7] = plasma, po, 10 mg/kg, PO 10 mg/kg, read-out: Blood concentration, Mean
[8] = plasma, po, 10 mg/kg, PO 10 mg/kg, read-out: Blood concentration, individual mice

Question: Which “Brain/plasma ratio, Mean” value (PO 10 mg/kg, 6 hr) does the source give for O=C1C=C(OCc2ccc(F)cc2)[C@H](Cc2ccccc2)N1 [Compound 50561] here?
Answer: 2.511 mL/G

Question: What about the “Blood concentration, individual mice” value (PO 10 mg/kg, 6 hr, 10 mg/kg) of the same compound?
Answer: 6.30 ng/mL and 8.82 ng/mL

Question: What about the “Brain tissue concentration, individual mice” value (“Brain tissue concentration” for short) (PO 10 mg/kg, 6 hr, 10 mg/kg) of the same compound?
Answer: 11.72 ng/G and 17.40 ng/G and 25.83 ng/G

Question: What about the “Brain/plasma ratio, individual mice” value (PO 10 mg/kg, 6 hr, 10 mg/kg) of the same compound?
Answer: 1.839 mL/G and 2.764 mL/G and 2.929 mL/G

Question: And the “Brain/plasma ratio, Mean” value (PO 10 mg/kg, 8 hr)?
Answer: 2.009 mL/G

Question: And the “Blood concentration, individual mice” value (PO 10 mg/kg, 8 hr, 10 mg/kg)?
Answer: 4.77 ng/mL and 3.88 ng/mL and 1.63 ng/mL

Question: And the “Brain tissue concentration” value (PO 10 mg/kg, 8 hr, 10 mg/kg)?
Answer: 9.49 ng/G and BLQ

Question: And the “Brain/plasma ratio, individual mice” value (PO 10 mg/kg, 8 hr, 10 mg/kg)?
Answer: 1.575 mL/G and 2.443 mL/G

Question: And the “Blood concentration, individual mice” value (PO 10 mg/kg, 24 hr)?
Answer: BLQ

Question: And the “Brain tissue concentration” value (PO 10 mg/kg, 24 hr)?
Answer: BLQ

Question: What about the “content in brain tissue compared with blood” value (after intravenous injection and oral administration) of the same compound?
Answer: higher than that in the blood

Question: And the concentration at 0.083 h [1]?
Answer: 738 ng/g

Question: And the concentration at 0.25 h [1]?
Answer: 454 ng/g

Question: And the concentration at 0.25 h [2]?
Answer: 462 ng/g

Question: What about the concentration at 0.5 h [1] of the same compound?
Answer: 204 ng/g

Question: And the concentration at 0.5 h [2]?
Answer: 148 ng/g

Question: What about the concentration at 1 h [1] of the same compound?
Answer: 43.1 ng/g

Question: What about the concentration at 1 h [2] of the same compound?
Answer: 42.6 ng/g

Question: And the concentration at 0.25 h [3]?
Answer: 1220 ng/g

Question: What about the concentration at 0.25 h [4] of the same compound?
Answer: 1470 ng/g

Question: What about the concentration at 0.5 h [3] of the same compound?
Answer: 1600 ng/g

Question: What about the concentration at 1 h [3] of the same compound?
Answer: 1120 ng/g

Question: What about the concentration at 1 h [4] of the same compound?
Answer: 906 ng/g

Question: And the concentration at 2 h [3]?
Answer: 335 ng/g

Question: And the concentration at 4 h [3]?
Answer: 41.7 ng/g

Question: And the concentration at 6 h (brain, po, 10 mg/kg, PO 10 mg/kg, 6 hr, read-out: Brain tissue concentration, Mean)?
Answer: 18.3 ng/g

Question: And the concentration at 8 h (brain, po, 10 mg/kg, PO 10 mg/kg, 8 hr, read-out: Brain tissue concentration, Mean)?
Answer: 8.5 ng/g

Question: And the concentration at 8 h (brain, po, 10 mg/kg, PO 10 mg/kg, 8 hr, read-out: Brain tissue concentration, individual mice)?
Answer: 7.52 ng/g

Question: And the concentration at 0.083 h [5]?
Answer: 302 ng/mL

Question: And the concentration at 0.25 h [5]?
Answer: 195 ng/mL

Question: And the concentration at 0.25 h [6]?
Answer: 188 ng/mL

Question: What about the concentration at 0.5 h [5] of the same compound?
Answer: 82 ng/mL

Question: And the concentration at 0.5 h [6]?
Answer: 58.1 ng/mL

Question: What about the concentration at 1 h [5] of the same compound?
Answer: 15.3 ng/mL

Question: And the concentration at 0.25 h [7]?
Answer: 653 ng/mL

Question: And the concentration at 0.25 h [8]?
Answer: 754 ng/mL

Question: And the concentration at 0.5 h [7]?
Answer: 727 ng/mL

Question: What about the concentration at 0.5 h [8] of the same compound?
Answer: 1020 ng/mL

Question: What about the concentration at 1 h [7] of the same compound?
Answer: 499 ng/mL

Question: What about the concentration at 1 h [8] of the same compound?
Answer: 365 ng/mL

Question: And the concentration at 2 h [7]?
Answer: 144 ng/mL

Question: What about the concentration at 4 h [7] of the same compound?
Answer: 18.9 ng/mL

Question: What about the concentration at 6 h (plasma, po, 10 mg/kg, PO 10 mg/kg, 6 hr, read-out: Blood concentration, Mean) of the same compound?
Answer: 7.16 ng/mL

Question: What about the concentration at 6 h (plasma, po, 10 mg/kg, PO 10 mg/kg, 6 hr, read-out: Blood concentration, individual mice) of the same compound?
Answer: 6.37 ng/mL

Question: And the concentration at 8 h (plasma, po, 10 mg/kg, PO 10 mg/kg, 8 hr, read-out: Blood concentration, Mean)?
Answer: 3.43 ng/mL
